Experiments:
GP2D (KRAS G12D) cells = assay: 2D cell viability assay (CellTiter-Glo); format: cell-based; settings: 96 h; GP2D cells, 4 days, CellTiter-Glo luminescence; read-out: G12D 2D EC50
Procedure, shortened: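 GP2D (KRAS G12D) cells, 1000/well in RPMI + 10% FBS, were plated onto compound (1:3 DMSO series) and grown 4 days at 37 °C, 5% CO2 in 2D. CellTiter-Glo luminescence was read; EC50 is the concentration giving 50% signal decrease, from sigmoidal fit.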

[1] = Dog oral pharmacokinetics; set-up: species or system Male Beagle dogs; settings: male, Beagle, in vivo, 5 mg/kg
Description: Dog Oral Pharmacokinetics
Test compounds were formulated in solution formulations (10% w/v % Sulfobutylether-p-cyclodextrin; 90% w/v % 50 mM Citrate Buffer) and administered orally at 5 or 10 mg-eq./kg to a group of three Male Beagle dogs. The animals were fasted overnight prior to dose administration and up to four hours after dosing. The test articles were administrated by oral gavage at a dose volume of 5 ml/kg.
Blood samples were collected into K2EDTA tubes at predose and 0.25, 0.5, 1, 2, 4, 6, 8, 12, 24 hours post dose, and once daily collection post 24 hours up to 168 hours. Whole blood were stored on wet ice and processed to plasma by centrifugation (3500 rpm for 10 minutes at 5° C.) within 1 hour of collection. Plasma samples were placed in Micronic 96 well tubes and stored at −80° C. until transferred. Plasma concentration of the test compounds was determined by LC-MS/MS. Pharmacokinetic parameters were estimated using non-compartment model analysis. The maximum observed concentration (Cmax) and area under the curve from time of dosing to last measured concentration (AUClast) were calculated and reported.

[2] = Mouse oral cassette pharmacokinetics; format: in vivo, male CD-1 mice; settings: male, CD-1, mouse, in vivo, po, 30 mg/kg
Procedure, shortened: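 Male CD-1 mice (n=4) dosed orally by gavage at 30 mg-eq./kg per compound as cassettes of 1–3 compounds in 10 w/v % Captisol/50 mM citrate. Plasma sampled 0.5–24 h post dose, analysed by LC-MS/MS; Cmax and AUClast from non-compartmental analysis.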

[3] = Rat oral pharmacokinetics; set-up: species or system Male Sprague Dawley rats; settings: male, Sprague Dawley, in vivo, 7.5 mg/kg

C#Cc1c(F)ccc2cc(O)cc(-c3nc4c5c(nc(OC[C@@]67CCCN6[C@H](COC(C(F)(F)F)(C(F)(F)F)C(F)(F)F)CC7)nc5c3F)N3C[C@H]5CC[C@@H]([C@H]3CCC4)N5Cc3oc(=O)oc3C)c12 [Example 38, 4-(((6aR,7S,10R)-2-(8-ethynyl-7-fluoro-3-hydroxynaphthalen-1-yl)-1-fluoro-13-(((3S,7aS)-3-(((1,1,1,3,3,3-hexafluoro-2-(trifluoromethyl)propan-2-yl)oxy)methyl)tetrahydro-1H-pyrrolizin-7a(5H)-yl)methoxy)-5,6,6a,7,8,9,10,11-octahydro-4H-3,11a,12,14,15-pentaaza-7,10-methanocyclohepta[4,5]cycloocta[1,2,3-de]naphthalen-15-yl)methyl)-5-methyl-1,3-dioxol-2-one]
EC50 (GP2D (KRAS G12D) cells): 0.25 nM | Dog Parent % F [1]: 4.2% | Dog Parent AUC [1]: 0.21 µM·h | Mouse Parent AUC (nM * h) [2]: 2,100 nM * h | Rat Parent % F [3]: 3% | Rat Parent AUC [3]: 0.28 µM·h
